Measured values taken from ChEMBL document CHEMBL3885881, “DrugMatrix”.

Organism: Rattus norvegicus
Assay: DrugMatrix - Regimen: Daily Repeat
Assay type: toxicity, organism-based, Sprague-Dawley
Design: regimen Daily Repeat, gender Male, age 6-8 weeks
Details: in vivo, po, route oral GAVAGE, vehicle .5 % CMC; for BASOPHIL / EOSINOPHIL / ERYTHROCYTE COUNT / HEMATOCRIT / HEMOGLOBIN / LEUKOCYTE COUNT / LYMPHOCYTE / MEAN CORPUSCULAR HEMOGLOBIN / MEAN CORPUSCULAR HEMOGLOBIN CONCENTRATION / MEAN CORPUSCULAR VOLUME / MONOCYTE / NEUTROPHIL / PLATELET COUNT: tissue Blood; for ALANINE AMINOTRANSFERASE / ALBUMIN / ALKALINE PHOSPHATASE / ASPARTATE AMINOTRANSFERASE / BLOOD UREA NITROGEN / CHLORIDE / CHOLESTEROL / CREATINE PHOSPHOKINASE / CREATININE / GLUCOSE / PHOSPHORUS / POTASSIUM / SODIUM / TOTAL BILIRUBIN / TOTAL PROTEIN: tissue Plasma
[1] = 0 mg/kg, 72 h, dose level Control, time 3 day
[2] = 0 mg/kg, 120 h, dose level Control, time 5 day
[3] = 10 mg/kg, 72 h, dose level Low, time 3 day
[4] = 10 mg/kg, 120 h, dose level Low, time 5 day
[5] = 1500 mg/kg, 72 h, dose level High, time 3 day
[6] = 1500 mg/kg, 120 h, dose level High, time 5 day

For `COc1ccc(Cl)cc1C(=O)NCCc1ccc(S(=O)(=O)NC(=O)NC2CCCCC2)cc1` [GLYBURIDE], the BASOPHIL [1] was 0%, the EOSINOPHIL [1] was 0% and the “ERYTHROCYTE COUNT” value [1] was 6.34 x10E6/uL. For the same compound, the HEMATOCRIT [1] was 37.62%, the HEMOGLOBIN [1] was 14.82 G/DL and the “LEUKOCYTE COUNT” value [1] was 11.18 x10E3/uL. For the same compound, the LYMPHOCYTE [1] was 87.5%, the “MEAN CORPUSCULAR HEMOGLOBIN” value [1] was 23.48 pg and the “MEAN CORPUSCULAR HEMOGLOBIN CONCENTRATION” value [1] was 39.5 G/DL. The “MEAN CORPUSCULAR VOLUME” value [1] was 59.45 fL, the MONOCYTE [1] was 1.67% and the NEUTROPHIL [1] was 10.83%. The “PLATELET COUNT” value [1] was 1074.83 x10E3/uL, the “ALANINE AMINOTRANSFERASE” value [1] was 36.5 u/L and the ALBUMIN [1] was 3.9 G/DL. For the same compound, the “ALKALINE PHOSPHATASE” value [1] was 370.17 u/L, the “ASPARTATE AMINOTRANSFERASE” value [1] was 63.17 u/L and the “BLOOD UREA NITROGEN” value [1] was 16.83 mg/dL. The CHLORIDE [1] was 99.33 MEQ/L, the CHOLESTEROL [1] was 64.33 mg/dL and the “CREATINE PHOSPHOKINASE” value [1] was 127 u/L. The CREATININE [1] was 0.55 mg/dL, the GLUCOSE [1] was 173.5 mg/dL and the PHOSPHORUS [1] was 10.08 mg/dL. For the same compound, the POTASSIUM [1] was 6.23 MEQ/L, the SODIUM [1] was 143.5 MEQ/L and the “TOTAL BILIRUBIN” value [1] was 0.52 mg/dL. For the same compound, the “TOTAL PROTEIN” value [1] was 6.35 G/DL, the BASOPHIL [2] was 0% and the EOSINOPHIL [2] was 0.17%. The “ERYTHROCYTE COUNT” value [2] was 6.12 x10E6/uL, the HEMATOCRIT [2] was 37.08% and the HEMOGLOBIN [2] was 14.82 G/DL. The “LEUKOCYTE COUNT” value [2] was 11.87 x10E3/uL, the LYMPHOCYTE [2] was 83.33% and the “MEAN CORPUSCULAR HEMOGLOBIN” value [2] was 24.25 pg. The “MEAN CORPUSCULAR HEMOGLOBIN CONCENTRATION” value [2] was 39.97 G/DL, the “MEAN CORPUSCULAR VOLUME” value [2] was 60.65 fL and the MONOCYTE [2] was 1.5%. For the same compound, the NEUTROPHIL [2] was 15%, the “PLATELET COUNT” value [2] was 1042.83 x10E3/uL and the “ALANINE AMINOTRANSFERASE” value [2] was 46 u/L. The ALBUMIN [2] was 3.82 G/DL, the “ALKALINE PHOSPHATASE” value [2] was 369.5 u/L and the “ASPARTATE AMINOTRANSFERASE” value [2] was 65 u/L. For the same compound, the “BLOOD UREA NITROGEN” value [2] was 16.33 mg/dL, the CHLORIDE [2] was 100.67 MEQ/L and the CHOLESTEROL [2] was 57.17 mg/dL. For the same compound, the “CREATINE PHOSPHOKINASE” value [2] was 130 u/L, the CREATININE [2] was 0.53 mg/dL and the GLUCOSE [2] was 163.33 mg/dL. For the same compound, the PHOSPHORUS [2] was 9.53 mg/dL, the POTASSIUM [2] was 6.27 MEQ/L and the SODIUM [2] was 144.83 MEQ/L. For the same compound, the “TOTAL BILIRUBIN” value [2] was 0.55 mg/dL, the “TOTAL PROTEIN” value [2] was 6.32 G/DL and the BASOPHIL [3] was 0%. The EOSINOPHIL [3] was 0.33%, the “ERYTHROCYTE COUNT” value [3] was 6.67 x10E6/uL and the HEMATOCRIT [3] was 40.2%. The HEMOGLOBIN [3] was 15.57 G/DL, the “LEUKOCYTE COUNT” value [3] was 12.13 x10E3/uL and the LYMPHOCYTE [3] was 90.33%. The “MEAN CORPUSCULAR HEMOGLOBIN” value [3] was 23.33 pg, the “MEAN CORPUSCULAR HEMOGLOBIN CONCENTRATION” value [3] was 38.7 G/DL and the “MEAN CORPUSCULAR VOLUME” value [3] was 60.3 fL. For the same compound, the MONOCYTE [3] was 1.33%, the NEUTROPHIL [3] was 8% and the “PLATELET COUNT” value [3] was 1148 x10E3/uL. The “ALANINE AMINOTRANSFERASE” value [3] was 30.33 u/L, the ALBUMIN [3] was 4.1 G/DL and the “ALKALINE PHOSPHATASE” value [3] was 317.67 u/L. The “ASPARTATE AMINOTRANSFERASE” value [3] was 61 u/L, the “BLOOD UREA NITROGEN” value [3] was 15 mg/dL and the CHLORIDE [3] was 99.33 MEQ/L. The CHOLESTEROL [3] was 66.33 mg/dL, the “CREATINE PHOSPHOKINASE” value [3] was 164.67 u/L and the CREATININE [3] was 0.5 mg/dL. The GLUCOSE [3] was 160.33 mg/dL, the PHOSPHORUS [3] was 11.87 mg/dL and the POTASSIUM [3] was 6.23 MEQ/L. The SODIUM [3] was 144.67 MEQ/L, the “TOTAL BILIRUBIN” value [3] was 0.3 mg/dL and the “TOTAL PROTEIN” value [3] was 6.77 G/DL. The BASOPHIL [4] was 0%, the EOSINOPHIL [4] was 0% and the “ERYTHROCYTE COUNT” value [4] was 6.4 x10E6/uL. The HEMATOCRIT [4] was 37.3%, the HEMOGLOBIN [4] was 14.67 G/DL and the “LEUKOCYTE COUNT” value [4] was 11.77 x10E3/uL. For the same compound, the LYMPHOCYTE [4] was 91.67%, the “MEAN CORPUSCULAR HEMOGLOBIN” value [4] was 22.97 pg and the “MEAN CORPUSCULAR HEMOGLOBIN CONCENTRATION” value [4] was 39.33 G/DL. For the same compound, the “MEAN CORPUSCULAR VOLUME” value [4] was 58.27 fL, the MONOCYTE [4] was 0.67% and the NEUTROPHIL [4] was 7.67%. For the same compound, the “PLATELET COUNT” value [4] was 1048 x10E3/uL, the “ALANINE AMINOTRANSFERASE” value [4] was 33 u/L and the ALBUMIN [4] was 3.77 G/DL. For the same compound, the “ALKALINE PHOSPHATASE” value [4] was 328 u/L, the “ASPARTATE AMINOTRANSFERASE” value [4] was 52.33 u/L and the “BLOOD UREA NITROGEN” value [4] was 13.67 mg/dL. For the same compound, the CHLORIDE [4] was 98.33 MEQ/L, the CHOLESTEROL [4] was 53.33 mg/dL and the “CREATINE PHOSPHOKINASE” value [4] was 128.67 u/L. The CREATININE [4] was 0.57 mg/dL, the GLUCOSE [4] was 174 mg/dL and the PHOSPHORUS [4] was 10.77 mg/dL. For the same compound, the POTASSIUM [4] was 5.8 MEQ/L, the SODIUM [4] was 144.33 MEQ/L and the “TOTAL BILIRUBIN” value [4] was 0.37 mg/dL. The “TOTAL PROTEIN” value [4] was 6.13 G/DL, the BASOPHIL [5] was 0% and the EOSINOPHIL [5] was 0%. For the same compound, the “ERYTHROCYTE COUNT” value [5] was 6.36 x10E6/uL, the HEMATOCRIT [5] was 37.7% and the HEMOGLOBIN [5] was 14.87 G/DL. The “LEUKOCYTE COUNT” value [5] was 13.87 x10E3/uL, the LYMPHOCYTE [5] was 88.67% and the “MEAN CORPUSCULAR HEMOGLOBIN” value [5] was 23.43 pg. For the same compound, the “MEAN CORPUSCULAR HEMOGLOBIN CONCENTRATION” value [5] was 39.47 G/DL, the “MEAN CORPUSCULAR VOLUME” value [5] was 59.33 fL and the MONOCYTE [5] was 1%. For the same compound, the NEUTROPHIL [5] was 10.33%, the “PLATELET COUNT” value [5] was 1260.33 x10E3/uL and the “ALANINE AMINOTRANSFERASE” value [5] was 32 u/L. For the same compound, the ALBUMIN [5] was 3.4 G/DL, the “ALKALINE PHOSPHATASE” value [5] was 223.33 u/L and the “ASPARTATE AMINOTRANSFERASE” value [5] was 50 u/L. For the same compound, the “BLOOD UREA NITROGEN” value [5] was 12 mg/dL, the CHLORIDE [5] was 104.33 MEQ/L and the CHOLESTEROL [5] was 52.67 mg/dL. For the same compound, the “CREATINE PHOSPHOKINASE” value [5] was 133.33 u/L, the CREATININE [5] was 0.4 mg/dL and the GLUCOSE [5] was 122.67 mg/dL. For the same compound, the PHOSPHORUS [5] was 9.57 mg/dL, the POTASSIUM [5] was 6.9 MEQ/L and the SODIUM [5] was 150.33 MEQ/L. The “TOTAL BILIRUBIN” value [5] was 0.23 mg/dL, the “TOTAL PROTEIN” value [5] was 5.47 G/DL and the BASOPHIL [6] was 0%. For the same compound, the EOSINOPHIL [6] was 0%, the “ERYTHROCYTE COUNT” value [6] was 6.13 x10E6/uL and the HEMATOCRIT [6] was 36.93%. For the same compound, the HEMOGLOBIN [6] was 14.7 G/DL, the “LEUKOCYTE COUNT” value [6] was 14.7 x10E3/uL and the LYMPHOCYTE [6] was 94.33%. For the same compound, the “MEAN CORPUSCULAR HEMOGLOBIN” value [6] was 24.03 pg, the “MEAN CORPUSCULAR HEMOGLOBIN CONCENTRATION” value [6] was 39.8 G/DL and the “MEAN CORPUSCULAR VOLUME” value [6] was 60.3 fL. For the same compound, the MONOCYTE [6] was 0.67%, the NEUTROPHIL [6] was 5% and the “PLATELET COUNT” value [6] was 1089.67 x10E3/uL. For the same compound, the “ALANINE AMINOTRANSFERASE” value [6] was 37 u/L, the ALBUMIN [6] was 3.67 G/DL and the “ALKALINE PHOSPHATASE” value [6] was 297.33 u/L. The “ASPARTATE AMINOTRANSFERASE” value [6] was 58.33 u/L, the “BLOOD UREA NITROGEN” value [6] was 12.67 mg/dL and the CHLORIDE [6] was 99.67 MEQ/L. The CHOLESTEROL [6] was 63.33 mg/dL, the “CREATINE PHOSPHOKINASE” value [6] was 139.33 u/L and the CREATININE [6] was 0.5 mg/dL. It also gave a GLUCOSE [6] of 135 mg/dL, a PHOSPHORUS [6] of 11.5 mg/dL and a POTASSIUM [6] of 6.2 MEQ/L. The SODIUM [6] was 145.33 MEQ/L, the “TOTAL BILIRUBIN” value [6] was 0.33 mg/dL and the “TOTAL PROTEIN” value [6] was 5.93 G/DL.
